Results taken from patent publication US20230285374A1, “THERAPEUTIC METHODS USING VADADUSTAT” (Akebia Therapeutics, Inc., priority 2019, published 2023).

What was measured:
[1] = system: adult patients with NDD-CKD and anemia, not previously treated with an ESA; assay: Phase 3 ESA-untreated NDD-CKD (Correction) trial, vadadustat vs darbepoetin alfa; assay type: in vivo, human; conditions: Correction study
Method: (§1) Two global, Phase 3, randomized, open-label, active-controlled, sponsor-blind clinical trials were conducted to evaluate safety and efficacy of vadadustat (Compound 1) vs the ESA darbepoetin alfa in adult patients with NDD-CKD and anemia. Patients recruited into the ESA-untreated NDD-CKD trial (N=1761) had hemoglobin <10 g/dL and were not previously being treated with an ESA. Patients recruited into the ESA-treated NDD-CKD trial (N=1750) had hemoglobin ranges of 8-11 g/dL (US) or 9-12 g/dL (non-US) and were actively treated with an ESA for anemia associated with CKD. Trial periods in both trials included 1) correction/conversion (weeks 0-23); 2) maintenance (weeks 24-52); 3) long-term treatment (week 53 to end of treatment); and 4) safety follow-up (end-of-treatment to 4 weeks later). The primary safety endpoint was time to first adjudicated major adverse cardiovascular event, defined as all-cause mortality, non-fatal myocardial infarction or non-fatal stroke pooled across both trials. The primary efficacy endpoint in each trial was mean change in hemoglobin from baseline to primary evaluation period (weeks 24-36) comparing vadadustat vs darbepoetin alfa treatment arms. Demographics and baseline characteristics were similar among patients in both trials, and typical for a large proportion of the NDD-CKD population. These trials helped define the safety and efficacy of vadadustat, an oral hypoxia-inducible factor prolyl hydroxylase inhibitor for management of anemia associated with NDD-CKD.
(§2) Two randomized, Phase 3, open-label, active-controlled clinical trials were conducted to evaluate the safety and efficacy of oral vadadustat versus injectable darbepoetin alfa: Correction (previously ESA-untreated) and Conversion (previously ESA-treated). Target enrollment for each was approximately 1850 patients recruited at approximately 390 and 480 sites in North America, Latin America, Europe, and the Asia Pacific for the ESA-untreated NDD-CKD trial and the ESA-treated NDD-CKD trial, respectively.
(§3) Trial Populations. Each trial recruited adults (>18 years of age) with NDD-CKD (estimated glomerular filtration rate 60 mL/min/1.73 m^2). […] In addition to the hemoglobin entry criteria, all patients were required to have serum ferritin ≥100 ng/mL and transferrin saturation 20% at screening in order to be randomized. In the ESA-untreated NDD-CKD trial, ESA use was permitted during screening, as per standard of care; however, patients were excluded if they received any ESA within 8 weeks of randomization. In the ESA-treated NDD-CKD trial, patients were actively maintained on ESA therapy, with at least one dose received within 6 weeks before or during screening. […]

[2] = system: adult patients with NDD-CKD and anemia, actively treated with an ESA; assay: Phase 3 ESA-treated NDD-CKD (Conversion) trial, vadadustat vs darbepoetin alfa; assay type: in vivo, human; conditions: Conversion study
Method: as §1, §2, §3

[3] = weeks 24 to 36, non-inferiority margin −0.75 g/dL

In the case of `O=C(O)CNC(=O)c1ncc(-c2cccc(Cl)c2)cc1O` [Compound 1, Vadadustat], the “mean (SD) Hb level” value ([1]; week 24 to week 36) is reported as 10.39 (0.99) g/dL, the “mean (SD) Hb level” value ([1]; week 40 to week 52) is reported as 10.48 (1.05) g/dL and the “least square mean difference in Hb (vadadustat vs darbepoetin alfa)” value (from here on “least square mean difference in Hb”) [1, 3] is reported as 0.05 g/dL. The “least square mean difference in Hb” value ([1]; weeks 40 to 52) was 0.04 g/dL, the “mean (SD) Hb level” value ([2]; week 24 to week 36) was 10.77 (0.98) g/dL and the “mean (SD) Hb level” value ([2]; week 40 to week 52) was 10.80 (1.04) g/dL. For the same molecule, the “least square mean difference in Hb” value [2, 3] was -0.01 g/dL and the “least square mean difference in Hb” value ([2]; weeks 40 to 52) was 0.00 g/dL.
